For 22 compounds, IC50 results are on record in patent US20220169639A1 (priority 2018, published 2022).

Molecules are shown by their SMILES.

In the test the test system is HBeAg (surrogate marker for cccDNA) in HepDES19 cells. Description: Engineered HepDES19 primary screen assay (HBeAg ELISA). The format is cell-based, HBV. To be noted: Hepatitis B virus, 120 h, HBeAg in culture supernatant, 5 days incubation, read-out: IC50 (HepDES19 primary screen assay, inhibition of extracellular HBeAg level). The source says:
The assay was employed to screen for cccDNA inhibitors. HepDES19 is a cccDNA-producing cell line. In this cell line, HBeAg in the cell culture supernatant as surrogate marker, as HBeAg production depends on cccDNA level and activity. HepDES19 is an engineered cell line which contains a 1.1 unit length HBV genome, and pgRNA transcription from the transgene is controlled by Tetracycline (Tet). In the absence of Tet, pgRNA transcription will be induced, but HBV e antigen (HBeAg) could not be produced from this pgRNA due to very short leader sequence before the HBeAg start codon and the start codon is disrupted. Only after cccDNA is formed, the missing leader sequence and start codon mutation would be restored from the 3′-terminal redundancy of pgRNA, and then HBeAg could be synthesized. Therefore, HBeAg could be used as a surrogate marker for cccDNA (Zhou, T. et al., Antiviral Res. (2006), 72(2), 116-124; Guo, H. et al., J. Virol. (2007), 81(22), 12472-12484).
HepDES19 cells were seeded at 2×10^6 cells per T150 flask and cultured with the culture medium (Dulbecco's Modified Eagle Medium: Nutrient Mixture F-12 [DMEM-F12, Gibco Cat. 11320-82], 10% Fetal Bovine Serum [FBS, Clontech Cat. 631101], 0.1 mM Non-Essential Amino Acids Solution [NEAA, Gibco Cat. 11140-050], 50 μg/mL Penicillin-Streptomycin [PS, Invitrogen Cat. 15140-163], 500 μg/mL Geneticin [G418, Invitrogen Cat. 10131-027]) containing 3 μg/mL Tet (Sigma, Cat. 87128) for 5 days. Cells were then seeded at 4×10^6 cells per T150 in the same culture medium as described above in the absence of Tet for 8 days. Cells were then harvested and frozen at density of 2×10^6 cells per mL. For compound testing, the frozen cells were thawed and seeded into 96-well plates at a density of 6×10^4 cells per well. At 24 hours after seeding, half log serial dilutions of compounds made with Dimethyl sulfoxide (DMSO, Sigma, Cat. D2650) were further diluted with the same culture medium as described above before they were added to the cells to reach desired final compound concentrations and 1% DMSO concentration. Plates were then incubated at 37° C. for another 5 days before measurement of HBeAg level and cell viability. Intracellular HBeAg level were measured with enzyme-linked immunosorbent assay (ELISA) kit (Shanghai Kehua Diagnostic Medical Products Co., Ltd). Cell viability was assessed using Cell Counting Kit-8 (DonJindo, Cat. CK04-20). IC50 values were derived from the dose-response curve using 4 parameter logistic curve fit method.
The compounds of the present invention were tested for their capacity to inhibit extracellular HBeAg level as described herein.
`Cc1ccc(-c2cc(=O)c3cccc(Cl)c3o2)c(OCCN2CCN(C)C2=O)c1` [Example 092, 1-[2-[2-(8-chloro-4-oxo-chromen-2-yl)-5-methyl-phenoxy]ethyl]-3-methyl-imidazolidin-2-one]: the IC50 was determined as 220 nM.

Take `CS(=N)(=O)C1CCN(CCOc2cc(C(F)(F)F)ccc2-c2cc(=O)c3cccc(Cl)c3o2)CC1` (stereo not shown) [Example 094, 8-chloro-2-[2-[2-[4-(methylsulfonimidoyl)-1-piperidyl]ethoxy]-4-(trifluoromethyl)phenyl]chromen-4-one]: the half-maximal inhibitory concentration (IC50) was 9790 nM.

Consider `CCOC(=O)C(=O)NCCCOc1cc(C)ccc1-c1cc(=O)c2cccc(Cl)c2o1` [Example 095, ethyl 2-[3-[2-(8-chloro-4-oxo-chromen-2-yl)-5-methyl-phenoxy]propylamino]-2-oxo-acetate], for which the IC50 is 9300 nM.

As to `O=c1cc(-c2ccc(C(F)(F)F)cc2OCCNS(=O)(=O)C2CC2)oc2c(Cl)cccc12` [Example 096], the 50% inhibitory concentration (IC50) was found to be 130 nM.

For `O=c1cc(-c2ccc(C(F)(F)F)cc2OCCCNS(=O)(=O)c2ccccc2)oc2c(Cl)cccc12` [Example 097], the IC50 stood at 1160 nM.

Consider `CCC(=O)NCCCOc1cc(C(F)(F)F)ccc1-c1cc(=O)c2cccc(Cl)c2o1` [Example 099], for which the concentration for half-maximal inhibition (IC50) was 6470 nM.

In the case of `CCOC(=O)C(=O)NCCCOc1cc(C(F)(F)F)ccc1-c1cc(=O)c2cccc(Cl)c2o1` [Example 100, ethyl 2-[3-[2-(8-chloro-4-oxo-chromen-2-yl)-5-(trifluoromethyl)phenoxy]propylamino]-2-oxo-acetate], the IC50 was 3840 nM.

On to `CCOC(=O)C(=O)NCCOc1cc(OC)c(Br)cc1-c1cc(=O)c2cccc(Cl)c2o1` [Example 102], for which the 50% inhibitory concentration (IC50) stood at 2910 nM.

Consider `CCOC(=O)C(=O)NCCOc1cc(C)ccc1-c1cc(=O)c2cc(OC)cc(Cl)c2o1` [Example 103], for which the IC50 is 3660 nM.

`CCOC(=O)C(=O)NCCOc1cc(OC)ccc1-c1cc(=O)c2cccc(Cl)c2o1` [Example 104]: the IC50 stood at 9650 nM.

With `COC(=O)NCCOc1cc(Br)ccc1-c1cc(=O)c2cccc(Cl)c2o1` [Example 105], the half-maximal inhibitory concentration (IC50) was 1900 nM.

Consider `CCOC(=O)NCCOc1cc(Br)ccc1-c1cc(=O)c2cccc(Cl)c2o1` [Example 106], for which the concentration for half-maximal inhibition (IC50) amounted to 1100 nM.

For `CNS(=O)(=O)NCCCOc1cc(C)ccc1-c1cc(=O)c2cccc(Cl)c2o1` [Example 107], the IC50 worked out at 2710 nM.

For the compound `O=c1cc(-c2ccc(Br)cc2OC2CCN(S(=O)(=O)C3CC3)CC2)oc2c(Cl)cccc12` [Example 108], the IC50 came out at 1140 nM.

`CCOC(=O)C(=O)NCCOc1cc(C)ccc1-c1cc(=O)c2cccc(Cl)c2o1` [Example 109, ethyl 2-[2-[2-(8-chloro-4-oxo-chromen-2-yl)-5-methyl-phenoxy]ethylamino]-2-oxo-acetate]: the IC50 worked out at 4110 nM.

On to `O=C(O)C(=O)NC1(COc2cc(C(F)(F)F)ccc2-c2cc(=O)c3cccc(Cl)c3o2)CC1` [Example 110, 2-[[1-[[2-(8-chloro-4-oxo-chromen-2-yl)-5-(trifluoromethyl)phenoxy]methyl]cyclopropyl]amino]-2-oxo-acetic acid], for which the half-inhibitory concentration (IC50) stood at 3760 nM.

As to `COc1ccc(-c2cc(=O)c3cccc(Cl)c3o2)c(OCCNC(=O)C(=O)O)c1` [Example 111, 2-[2-[2-(8-chloro-4-oxo-chromen-2-yl)-5-methoxy-phenoxy]ethylamino]-2-oxo-acetic acid], the IC50 was found to be 180 nM.

Turning to `Cc1cc(F)c(-c2cc(=O)c3cccc(Cl)c3o2)c(OCCNC(=O)C(=O)O)c1` [Example 112], the 50% inhibitory concentration (IC50) was 490 nM.

Consider `O=C(O)C(=O)NCCOc1cc(Br)ccc1-c1cc(=O)c2cccc(Cl)c2o1` [Example 113], for which the IC50 stood at 490 nM.

For `COc1cc(OCCNC(=O)C(=O)O)c(-c2cc(=O)c3cccc(Cl)c3o2)cc1OC` [Example 114], the half-maximal inhibitory concentration (IC50) came out at 870 nM.

For `CC(C)(COc1cc(C(F)(F)F)ccc1-c1cc(=O)c2cccc(Cl)c2o1)NC(=O)C(=O)O` [Example 115], the IC50 was 1040 nM.

In the case of `COc1cc(C)cc(OCCNC(=O)C(=O)O)c1-c1cc(=O)c2cccc(Cl)c2o1` [Example 118], the IC50 was 1980 nM.
